“Also recorded” adds a separate entry of the source. In the oligonucleotide strings, read from the 5' end, every base follows the letter of its sugar. An asterisk marks phosphorothioate; unmarked linkages are phosphodiester. Other units and linkages are bracketed, terminal groups are in braces. A string of capitals states the bases alone. e = 2'-O-(2-methoxyethyl) (MOE); [5mC] = 5-methylcytosine
test system: mir-21 pri-miRNA; experiment: mir-21 pri-miRNA expression in HeLa cells (real-time RT-PCR); assay type: cell-based, human; details: HeLa cells, 100 nM, real-time RT-PCR
Description: In one embodiment, the expression of mir-21 (noted to be expressed at high levels in HeLa cells) was assessed in cells treated with oligomeric compounds. Using the transfection methods previously described, HeLa cells were treated with 100 nM of the uniform 2′-MOE oligomeric compound ISIS Number 327917 (SEQ ID NO: 335) targeting the mir-21 mature miRNA. Total RNA was isolated by lysing cells in 1 mL TRIZOL™ (Invitrogen) using the manufacturer's recommended protocols. […] Real-time RT-PCR analysis was also performed on HeLa cells treated with ISIS 327917 using a primer/probe set specific for the mir-21 pri-miRNA molecule [forward primer=ISIS 339332 ([…]; herein incorporated as SEQ ID NO.: 911), reverse primer-ISIS 339333 (TCGACTGGTGTTGCCATGA; herein incorporated as SEQ ID NO.: 912), and probe=ISIS 339334 ([…]; herein incorporated as SEQ ID NO.: 913)]. Total RNA was quantified using RiboGreen™ RNA quantification reagent (Molecular Probes, Inc. Eugene, Oreg.), expression levels observed for the target were normalized to 5.8S rRNA, and values were expressed relative to an untreated control (UTC).
Using the real-time RT-PCR methods, the expression levels of the mir-21 pri-miRNA were compared in HeLa cells treated with this nested series of uniform 2′-MOE oligomeric compounds, targeting and spanning the entire length of the mir-21 pri-miRNA. ISIS Number 358768 (SEQ ID NO: 918) targets a region flanking the predicted 5′ Drosha cleavage site in the mir-21 pri-miRNA. ISIS Number 358777 (SEQ ID NO: 927) targets a region spanning the 3′ Drosha cleavage site in the mir-21 pri-miRNA. ISIS 358779 (SEQ ID NO: 929) targets a region flanking the predicted 3′ Drosha cleavage site in the mir-21 pri-miRNA. Additionally, oligomeric compounds ISIS 327917 (SEQ ID NO: 335), a uniform 2′-MOE compound targeting the mature mir-21 miRNA, and ISIS 345382 ([…]; SEQ ID NO: 335), a 5-10-7 phosphorothioate 2′-MOE gapmer targeting mir-21, were tested for comparison. Oligomeric compound ISIS 327863 ([…]; herein incorporated as SEQ ID NO: 936), a phosphorothioate 5-10-52′-MOE gapmer, was used as scrambled control. […] Total RNA was isolated by lysing cells in 1 mL TRIZOL™ (Invitrogen) using the manufacturer's recommended protocols. real-time RT-PCR analysis was performed using the primer/probe set specific for the mir-21 pri-miRNA molecule [forward primer=ISIS 339332 (SEQ ID NO.: 911), reverse primer-ISIS 339333 (SEQ ID NO.: 912), and probe=ISIS 339334 (SEQ ID NO.: 913)]. Total RNA was quantified using RiboGreen™ RNA quantification reagent (Molecular Probes, Inc. Eugene, Oreg.), expression levels observed for each target were normalized to 5.8S rRNA, and values were expressed relative to the untreated control (UTC). Effects on expression of the mir-21 pri-miRNA molecule resulting from treatment of HeLa cells with these uniform 2′-MOE oligomeric compounds is expressed as a percentage of RNA levels in untreated control cells.

Substance	mir-21 pri-miRNA expression % UTC
358774 (antisense e[5mC]*eA*eT*e[5mC]*eG*eA*e[5mC]*eT*eG*eG*eT*eG*eT*eT*eG*e[5mC]*e[5mC]*eA*eT*eG) [compound 358774]	104 % UTC
358781 (antisense eT*eA*eA*eT*eG*eT*eT*eT*eA*eA*eA*eT*eG*eA*eG*eA*eA*e[5mC]*eA*eT) [compound 358781]	122 % UTC
358767 (eG*eG*eA*eG*eA*eT*eG*eT*e[5mC]*eA*e[5mC]*eG*eA*eT*eG*eG*eT*eA*eG*eG; antisense) [compound 358767]	248 % UTC
358780 (antisense eA*eA*e[5mC]*eA*eT*eT*eG*eG*eA*eT*eA*eT*eG*eG*eA*eT*eG*eG*eT*e[5mC]) [compound 358780]	269 % UTC
358771 (e[5mC]*eA*eA*e[5mC]*eA*eG*eT*e[5mC]*eA*eA*e[5mC]*eA*eT*e[5mC]*eA*eG*eT*e[5mC]*eT*eG; antisense) [compound 358771]	181 % UTC
358772 (eG*eA*eG*eA*eT*eT*e[5mC]*eA*eA*e[5mC]*eA*eG*eT*e[5mC]*eA*eA*e[5mC]*eA*eT*e[5mC]; antisense) [compound 358772]	245 % UTC
358773 (e[5mC]*eT*eG*eG*eT*eG*eT*eT*eG*e[5mC]*e[5mC]*eA*eT*eG*eA*eG*eA*eT*eT*e[5mC]; antisense) [compound 358773]	148 % UTC
358765 (eA*e[5mC]*eA*eA*eG*e[5mC]*eA*eG*eA*e[5mC]*eA*eG*eT*e[5mC]*eA*eG*eG*e[5mC]*eA*eG; antisense) [compound 358765]	133 % UTC
358782 (antisense eA*eA*e[5mC]*eA*eA*eT*eG*eA*eT*eG*e[5mC]*eT*eG*eG*eG*eT*eA*eA*eT*eG) [compound 358782]	155 % UTC
358783 (antisense eG*eA*eG*eT*eT*eT*e[5mC]*eT*eG*eA*eT*eT*eA*eT*eA*eA*eA*e[5mC]*eA*eA) [compound 358783]	133 % UTC

same assay, conditions: HeLa, 100 nM

Substance	levels of the mir-21 pri-miRNA molecule
ISIS 358767: uniform 2′-MOE PS; targets mir-21 pri-miRNA (antisense eG*eG*eA*eG*eA*eT*eG*eT*e[5mC]*eA*e[5mC]*eG*eA*eT*eG*eG*eT*eA*eG*eG)	stimulate an increase in levels of the mir-21 pri-miRNA molecule
ISIS 358768: uniform 2′-MOE PS; SEQ ID NO: 918; region flanking 5′ Drosha cleavage site of mir-21 pri-miRNA (antisense eA*eG*eG*eT*eG*eG*eT*eA*e[5mC]*eA*eG*e[5mC]*e[5mC]*eA*eT*eG*eG*eA*eG*eA) [uniform 2′-MOE PS; region flanking 5′ Drosha cleavage site of mir-21 pri-miRNA]	stimulate an increase in levels of the mir-21 pri-miRNA molecule; also recorded: stimulate the greatest increases in expression of the mir-21 pri-miRNA
ISIS 358784: uniform 2′-MOE PS; targets mir-21 pri-miRNA (antisense e[5mC]*eG*eA*e[5mC]*eA*eA*eG*eG*eT*eG*eG*eT*eA*e[5mC]*eA*eG*e[5mC]*e[5mC]*eA*eT)	stimulate an increase in levels of the mir-21 pri-miRNA molecule
ISIS 358772: uniform 2′-MOE PS; targets mir-21 pri-miRNA (antisense eG*eA*eG*eA*eT*eT*e[5mC]*eA*eA*e[5mC]*eA*eG*eT*e[5mC]*eA*eA*e[5mC]*eA*eT*e[5mC])	stimulate an increase in levels of the mir-21 pri-miRNA molecule
ISIS 358775: uniform 2′-MOE PS; targets mir-21 pri-miRNA (antisense eA*e[5mC]*eA*eG*e[5mC]*e[5mC]*e[5mC]*eA*eT*e[5mC]*eG*eA*e[5mC]*eT*eG*eG*eT*eG*eT*eT)	stimulate an increase in levels of the mir-21 pri-miRNA molecule

same assay, conditions: HeLa, 25, 50, 100 and 200 nM

Substance	mir-21 pri-miRNA levels, dose response
ISIS 358768: uniform 2′-MOE PS; SEQ ID NO: 918; region flanking 5′ Drosha cleavage site of mir-21 pri-miRNA (antisense eA*eG*eG*eT*eG*eG*eT*eA*e[5mC]*eA*eG*e[5mC]*e[5mC]*eA*eT*eG*eG*eA*eG*eA) [uniform 2′-MOE PS; region flanking 5′ Drosha cleavage site of mir-21 pri-miRNA]	dose-responsive induction of mir-21 pri-miRNA levels
